{"source": "patent US11648287B2", "about": "“Composition for the treatment of intracellular bacterial infection” (priority 2017, dated 2023)", "key": {"zebrafish embryos [1]": {"test_system": "zebrafish embryos", "assay": "Toxicity test of gentamicin alone or combined with TPCS2a in zebrafish embryos", "format": "in vivo", "conditions": "for toxicity to zebrafish embryos (survival): graded doses injected per embryo; for maximal non-toxic concentrations: injection at 32 hpf, illumination 10 minutes, survival until 6 dpi", "experimental": "(§1) Injection into the blood circulation of zebrafish embryos via either the blood island or the duct of Cuvier (Benard et al., 2012, Journal of visualized experiments: JoVE, 61) was performed following the injection procedure described earlier (Zhang et al., 2017, supra). The volume of liquid per injection was adjusted to 1 nl for all injections in the present study.\nToxicity test of gentamicin alone or combined with TPCS2a in zebrafish embryos Gentamicin or TPCS2a solution (both in PBS) or mixtures were injected into WT zebrafish embryos at 32 hours post fertilization (hpf). PBS was injected into control embryos. The embryos were protected from light using aluminium foil apart from illumination for 10 minutes using LumiSource, at 34 hpf. Survival of embryos (heartbeat, movement) was monitored daily until 6 dpi."}, "zebrafish embryos [2]": {"test_system": "zebrafish embryos", "assay": "Toxicity of vancomycin alone or combined with TPCS2a and illumination for non-infected zebrafish embryos", "format": "in vivo", "conditions": "vancomycin alone, 0.4 to 6.4 ng per non-infected embryo", "experimental": "The toxicity of vancomycin (Vanco) alone or combined with TPCS2a and illumination (T) for non-infected zebrafish embryos was examined. Doses of vancomycin (0.4, 1.6 or 6.4 ng per 1 nl of PBS), or combined with 2.5*10^−3 ng TPCS2a per 1 nl of PBS, were injected per embryo. […] The initial group sizes were 27 to 29 embryos."}, "Staphylococcus aureus": {"test_system": "Staphylococcus aureus", "conditions": "vancomycin alone 0.4 ng; 4300 CFU/embryo", "procedure": "To investigate whether PCI enhanced the antimicrobial efficacy of vancomycin against Staphylococcus aureus infection, S. aureus-infected zebrafish embryos were treated with vancomycin alone (0.4 ng) or combined with TPCS2a (2.5*10^−3 ng). PBS mock treatment was used as control. After injections, zebrafish embryos were maintained group-wise in petri-dishes containing E3 medium. The petri-dishes were placed on the Lumisource illumination device and embryos were illuminated for 10 minutes. Initial group sizes were 29 or 30 embryos. The difference between survival of the vancomycin alone group and the vancomycin-TPCS2a/illumination group was analyzed using Log-rank test, *p≤0.033."}, "[3]": {"test_system": "S. epidermidis strain O-47", "assay": "MIC and MBC of gentamicin for S. epidermidis in RPMI", "format": "cell-based", "conditions": "S. epidermidis O-47; RPMI medium supplemented with 5% fetal calf serum", "source_text": "An “antibacterial agent” is an entity (e.g. a molecule) which has the ability to kill, damage or prevent the replication of selected bacteria under in vitro conditions, e.g. when in direct contact under culture conditions. The bacteria are preferably as described herein. (As referred to herein bacteria are referred to in both the singular and plural. In particular they are referred to in the singular when defining the type of bacteria to be targeted (i.e. the type, e.g. species, applicable to each bacterium) and in the plural when referring to the treatment to which they may be subjected (i.e. treatment of multiple microorganisms).) In particular, the antibacterial activity is assessed by determining the MIC or MBC value against one or more bacteria, e.g. against a Staphylococcus bacteria. Antibacterial activity may be determined by reference to the MIC value, minimum inhibition concentration (MIC), which is defined as the minimum concentration of an antimicrobial agent that inhibits visible growth of micro-organisms in specified liquid media after overnight incubation. Alternatively antibacterial activity may be determined by the minimum bactericidal concentration (MBC) which is the minimum concentration that kills 99.9% of the bacteria during this incubation period. […]"}, "Raw 264.7 cells [4]": {"test_system": "Raw 264.7 cells", "assay": "MTT metabolic activity of Raw 264.7 cells (gentamicin cytotoxicity)", "format": "cell-based, mouse", "conditions": "after incubation of 24 hours", "experimental": "(§2) Raw 264.7 cells were seeded in a 96-well plate (polystyrene Nunclon™ clear TC plate, flat bottom, Greiner, The Netherlands) at a concentration of 1×10^5 cells/well and incubated overnight in RPMI at 37° C. in a humidified atmosphere containing 5% CO2 (unless specified otherwise). The cells were subsequently incubated overnight in 200 μl of RPMI containing gentamicin (15.6 to 1000 μg/ml), or incubated for 2 hours in RPMI containing photosensitizer TPPS2a (0.1 to 0.4 μg/ml) (PCI Biotech AS, Norway) which was replaced with refresh RPMI in order to remove unbound TPPS2a before incubation of another 2 hours. Raw 264.7 cells incubated in RPMI all the time were used as controls. The cells were protected from light using aluminium foil apart from illumination of 15 minutes using LumiSource (PCI Biotech AS, Norway). After illumination, cells were incubated in refresh RPMI for 24 hours. The effect of gentamicin and of TPPS2a on the metabolic activity of Raw 264.7 cells was tested using MTT at 24 hours after incubation or by WST-1 assay directly and at 24 hours after illumination, respectively, according to the manufacturer's instruction (Cell MTT or WST-1 assay kit, Sigma-Aldrich, The Netherlands). […] The influx of propidium iodide was measured to quantify the loss of cell viability directly or at 24 hours after illumination."}, "[5]": {"test_system": "intracellular S. epidermidis in Raw 264.7 cells", "assay": "Intracellular antimicrobial activity assay", "format": "cell-based", "experimental": "After culture S. epidermidis bacteria were pelleted, re-suspended in 1.5 ml of PBS mixed with 0.5 ml of human serum (H1 serum, Cat […], Bio Whittaker, The Netherlands) and incubated for 20 minutes for opsonization. The inoculum was adjusted to 1.8×10^8 CFU/ml with RPMI. Medium of cells was replaced by 40 μl of the bacterial inoculum (bacteria to cell ratio of 40:1) and phagocytosis was allowed to proceed for 45 minutes. […] Raw 264.7 cells were detached by incubation in 100 μl of RPMI containing 0.5 mM EDTA. Detached cells were transferred to a vial and lysed with 40 μl of 1% saponine by incubation in a waterbath sonicator for 5 minutes (Transsonic 460, Elma Schmldbaur GmbH, Germany). The sonicate was centrifuged, and the pelleted bacteria were washed repeatedly and re-suspended in PBS before quantitative culture of serial 10-fold dilutions. Intracellular surviving S. epidermidis in Raw 264.7 cells were expressed as numbers of CFU per well. […] After illumination, cells were incubated overnight, lysed before quantitative culture of surviving bacteria."}, "S aureus ATCC 49230": {"test_system": "S aureus ATCC 49230", "assay": "Treatment of S. aureus-infected zebrafish embryos with gentamicin alone or combined with TPCS2a", "format": "in vivo", "conditions": "0.4, 0.1 or 0.05 ng gentamicin, without or with 2.5*10^−3 ng TPCS2a; illumination 10 minutes", "experimental": "as §1\nWild type zebrafish embryos were intravenously injected with a suitable dose of S aureus ATCC 49230 via the blood island at 30 hpf, and randomly divided into groups for different treatments. At 32 hpf 1 nl of PBS solution containing gentamicin alone (0.05, 0.1 or 0.4 μg/ml) or combined with 0.25 μg/ml TPCS2a (to provide 2.5×10^−3 ng) was intravenously injected. Control embryos received PBS injections. The embryos were protected from light using aluminium foil apart from illumination of 10 minutes, at 34 hpf, and separately maintained in E3 medium, which was refreshed daily. Survival was monitored until 6 dpi."}, "Raw 264.7 cells [6]": {"test_system": "Raw 264.7 cells", "assay": "Propidium iodide influx, loss of viability of Raw 264.7 cells", "format": "cell-based, mouse", "conditions": "TPPS2a 0.25 μg/ml + S. epidermidis (40:1); illuminated for 5 minutes", "experimental": "as §2, with “The cells were protected from light using aluminium foil apart from illumination of 15 minutes using LumiSource (PCI Biotech AS, Norway).” left out"}}}
{"compound": "tetraphenyl chlorin disulphonate [TPCS2a]", "values": [{"measurement": "toxicity to zebrafish embryos (survival)", "setting": "zebrafish embryos [1]", "result": "dose-dependent toxicity"}, {"measurement": "maximal non-toxic concentrations", "setting": "zebrafish embryos [1]", "result": "2.5*10^−3 ng/embryo"}]}
{"compound": "CN[C@H](CC(C)C)C(=O)N[C@H]1C(=O)N[C@@H](CC(N)=O)C(=O)N[C@H]2C(=O)N[C@H]3C(=O)N[C@H](C(=O)N[C@H](C(=O)O)c4cc(O)cc(O)c4-c4cc3ccc4O)[C@H](O)c3ccc(c(Cl)c3)Oc3cc2cc(c3O[C@@H]2O[C@H](CO)[C@@H](O)[C@H](O)[C@H]2O[C@H]2C[C@](C)(N)[C@H](O)[C@H](C)O2)Oc2ccc(cc2Cl)[C@H]1O", "note": "[vancomycin]", "values": [{"measurement": "toxicity to zebrafish embryos", "setting": "zebrafish embryos [2]", "result": "dose-dependent toxicity"}, {"measurement": "survival of S. aureus-infected embryos", "setting": "Staphylococcus aureus", "result": "had no effect on the survival of the infected embryos"}]}
{"compound": "gentamicin", "values": [{"measurement": "minimal bactericidal concentration", "setting": "[3]", "result": 0.33, "unit": "µg/mL"}, {"measurement": "minimal inhibitory concentration", "setting": "[3]", "result": 0.04, "unit": "µg/mL"}, {"measurement": "extracellular concentrations that did not reduce the metabolic activity of Raw 264.7 cells", "setting": "Raw 264.7 cells [4]", "result": "up to 250 μg/ml"}, {"measurement": "killing of intracellular S. epidermidis", "setting": "[5]; gentamicin only 1, 10 or 30 μg/ml, regardless of time of illumination", "result": "did not kill intracellular S. epidermidis"}, {"measurement": "effect of PCI on the efficacy of gentamicin", "setting": "[5]; lowest dose of gentamicin, with PCI, in vitro", "result": "no effect of PCI"}, {"measurement": "toxicity to zebrafish embryos (survival)", "setting": "zebrafish embryos [1]", "result": "dose-dependent toxicity"}, {"measurement": "maximal non-toxic concentrations", "setting": "zebrafish embryos [1]", "result": 2, "unit": "ng/embryo"}, {"measurement": "survival of S. aureus-infected embryos compared to PBS mock treatment", "setting": "S aureus ATCC 49230", "result": "significantly improved the survival"}]}
{"compound": "O=S(=O)(O)c1ccc(-c2c3nc(c(-c4ccccc4)c4ccc([nH]4)c(-c4ccccc4)c4nc(c(-c5ccc(S(=O)(=O)O)cc5)c5ccc2[nH]5)C=C4)C=C3)cc1", "note": "[TPPS2a, tetraphenyl porphyrin disulphonate]", "values": [{"measurement": "reduction of cell viability (influx of propidium iodide)", "setting": "Raw 264.7 cells [6]", "result": "not statistically different from the control group"}, {"measurement": "intracellular survival of S. epidermidis vs non-treated illuminated group", "setting": "[5]; TPPS2a only 0.25 μg/ml, with illumination", "result": "did not affect intracellular survival of S. epidermidis"}]}
